Columns and labels:
Assay in all cases: normalized area under the dose-response curve (viability relative to DMSO control) (fraction); higher = less sensitive (more viable cells)
Settings in all cases: exposure time not given
AMO1 (cancer type: MM) = test system: AMO1 (cancer type: MM)
Protocol: (§1)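 25 myeloma and 15 non-Hodgkin lymphoma cell lines were exposed to each of 76 drugs as 7-point log dilutions (0.01 nM–10 µM) in duplicate. Viability was read with CellTiter-Glo and normalised to DMSO (0.1%) and staurosporine (10 µM) plate controls. Normalised AUC was calculated by the trapezoidal method relative to the negative control.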

EJM (cancer type: MM) = test system: EJM (cancer type: MM)
Protocol: as §1

FR4 (cancer type: MM) = test system: FR4 (cancer type: MM)
Protocol: as §1

[1] = test system: Granta-519 (cancer type: Mantle)
Protocol: as §1

[2] = test system: HuT 78 (cancer type: TCL)
Protocol: as §1

JJN3 (cancer type: MM) = test system: JJN3 (cancer type: MM)
Protocol: as §1

[3] = test system: JVM2 (cancer type: Mantle)
Protocol: as §1

[4] = test system: JeKo-1 (cancer type: Mantle)
Protocol: as §1

KMS11 (cancer type: MM) = test system: KMS11 (cancer type: MM)
Protocol: as §1

[5] = test system: KMS12PE (cancer type: MM)
Protocol: as §1

KMS18 (cancer type: MM) = test system: KMS18 (cancer type: MM)
Protocol: as §1

KMS26 (cancer type: MM) = test system: KMS26 (cancer type: MM)
Protocol: as §1

[6] = test system: KMS28BM (cancer type: MM)
Protocol: as §1

[7] = test system: KMS28PE (cancer type: MM)
Protocol: as §1

KMS34 (cancer type: MM) = test system: KMS34 (cancer type: MM)
Protocol: as §1

[8] = test system: Karpas-299 (cancer type: TCL)
Protocol: as §1

L363 (cancer type: MM) = test system: L363 (cancer type: MM)
Protocol: as §1

LP1 (cancer type: MM) = test system: LP1 (cancer type: MM)
Protocol: as §1

MM1.R (cancer type: MM) = test system: MM1.R (cancer type: MM)
Protocol: as §1

MM1.S (cancer type: MM) = test system: MM1.S (cancer type: MM)
Protocol: as §1

[9] = test system: Mino (cancer type: Mantle)
Protocol: as §1

My-La (cancer type: TCL) = test system: My-La (cancer type: TCL)
Protocol: as §1

[10] = test system: NCI-H929 (cancer type: MM)
Protocol: as §1

[11] = test system: OCI-LY1 (cancer type: DLBCL)
Protocol: as §1

[12] = test system: OCI-LY19 (cancer type: DLBCL)
Protocol: as §1

[13] = test system: OCI-LY3 (cancer type: DLBCL)
Protocol: as §1

[14] = test system: OCI-MY5 (cancer type: MM)
Protocol: as §1

[15] = test system: OCI-MY5/CRBN (cancer type: MM)
Protocol: as §1

[16] = test system: OCI-MY5/Vec (cancer type: MM)
Protocol: as §1

[17] = test system: OCI-MY7 (cancer type: MM)
Protocol: as §1

OPM2 (cancer type: MM) = test system: OPM2 (cancer type: MM)
Protocol: as §1

[18] = test system: RPMI 8226 (cancer type: MM)
Protocol: as §1

SKMM2 (cancer type: MM) = test system: SKMM2 (cancer type: MM)
Protocol: as §1

[19] = test system: SR-786 (cancer type: TCL)
Protocol: as §1

[20] = test system: SU-DHL1 (cancer type: TCL)
Protocol: as §1

[21] = test system: SU-DHL2 (cancer type: DLBCL)
Protocol: as §1

[22] = test system: SU-DHL6 (cancer type: DLBCL)
Protocol: as §1

Se-Ax (cancer type: TCL) = test system: Se-Ax (cancer type: TCL)
Protocol: as §1

U266 (cancer type: MM) = test system: U266 (cancer type: MM)
Protocol: as §1

XG2 (cancer type: MM) = test system: XG2 (cancer type: MM)
Protocol: as §1

C[C@@H]1CCN(C(=O)CC#N)C[C@@H]1N(C)c1ncnc2[nH]ccc12 [Tofacitinib]
normalized area under the dose-response curve (AMO1 (cancer type: MM)): 0.901 | normalized area under the dose-response curve (EJM (cancer type: MM)): 0.941 | normalized area under the dose-response curve (FR4 (cancer type: MM)): 1 | normalized area under the dose-response curve [1]: 0.94 | normalized area under the dose-response curve [2]: 0.879 | normalized area under the dose-response curve (JJN3 (cancer type: MM)): 0.966 | normalized area under the dose-response curve [3]: 0.931 | normalized area under the dose-response curve [4]: 1.05 | normalized area under the dose-response curve (KMS11 (cancer type: MM)): 0.933 | normalized area under the dose-response curve [5]: 1.01 | normalized area under the dose-response curve (KMS18 (cancer type: MM)): 1.01 | normalized area under the dose-response curve (KMS26 (cancer type: MM)): 0.957 | normalized area under the dose-response curve [6]: 0.962 | normalized area under the dose-response curve [7]: 0.936 | normalized area under the dose-response curve (KMS34 (cancer type: MM)): 0.89 | normalized area under the dose-response curve [8]: 0.891 | normalized area under the dose-response curve (L363 (cancer type: MM)): 0.904 | normalized area under the dose-response curve (LP1 (cancer type: MM)): 0.858 | normalized area under the dose-response curve (MM1.R (cancer type: MM)): 0.92 | normalized area under the dose-response curve (MM1.S (cancer type: MM)): 0.85 | normalized area under the dose-response curve [9]: 0.957 | normalized area under the dose-response curve (My-La (cancer type: TCL)): 0.877 | normalized area under the dose-response curve [10]: 0.92 | normalized area under the dose-response curve [11]: 0.994 | normalized area under the dose-response curve [12]: 0.996 | normalized area under the dose-response curve [13]: 0.952 | normalized area under the dose-response curve [14]: 0.944 | normalized area under the dose-response curve [15]: 0.97 | normalized area under the dose-response curve [16]: 1.02 | normalized area under the dose-response curve [17]: 0.95 | normalized area under the dose-response curve (OPM2 (cancer type: MM)): 0.938 | normalized area under the dose-response curve [18]: 1 | normalized area under the dose-response curve (SKMM2 (cancer type: MM)): 0.978 | normalized area under the dose-response curve [19]: 0.856 | normalized area under the dose-response curve [20]: 0.97 | normalized area under the dose-response curve [21]: 0.93 | normalized area under the dose-response curve [22]: 0.969 | normalized area under the dose-response curve (Se-Ax (cancer type: TCL)): 0.929 | normalized area under the dose-response curve (U266 (cancer type: MM)): 0.874 | normalized area under the dose-response curve (XG2 (cancer type: MM)): 0.838

CS(=O)(=O)c1ccc(C(=O)Nc2ccc(Cl)c(-c3ccccn3)c2)c(Cl)c1 [Vismodegib]
normalized area under the dose-response curve (AMO1 (cancer type: MM)): 0.871 | normalized area under the dose-response curve (EJM (cancer type: MM)): 0.901 | normalized area under the dose-response curve (FR4 (cancer type: MM)): 1.02 | normalized area under the dose-response curve [1]: 0.924 | normalized area under the dose-response curve [2]: 0.9 | normalized area under the dose-response curve (JJN3 (cancer type: MM)): 0.906 | normalized area under the dose-response curve [3]: 0.819 | normalized area under the dose-response curve [4]: 0.878 | normalized area under the dose-response curve (KMS11 (cancer type: MM)): 0.93 | normalized area under the dose-response curve [5]: 0.94 | normalized area under the dose-response curve (KMS18 (cancer type: MM)): 0.995 | normalized area under the dose-response curve (KMS26 (cancer type: MM)): 0.838 | normalized area under the dose-response curve [6]: 0.948 | normalized area under the dose-response curve [7]: 0.871 | normalized area under the dose-response curve (KMS34 (cancer type: MM)): 0.801 | normalized area under the dose-response curve [8]: 0.895 | normalized area under the dose-response curve (L363 (cancer type: MM)): 0.859 | normalized area under the dose-response curve (LP1 (cancer type: MM)): 0.906 | normalized area under the dose-response curve (MM1.R (cancer type: MM)): 0.88 | normalized area under the dose-response curve (MM1.S (cancer type: MM)): 0.85 | normalized area under the dose-response curve [9]: 0.911 | normalized area under the dose-response curve (My-La (cancer type: TCL)): 0.873 | normalized area under the dose-response curve [10]: 0.87 | normalized area under the dose-response curve [11]: 0.967 | normalized area under the dose-response curve [12]: 0.827 | normalized area under the dose-response curve [13]: 0.939 | normalized area under the dose-response curve [14]: 0.826 | normalized area under the dose-response curve [15]: 0.942 | normalized area under the dose-response curve [16]: 0.922 | normalized area under the dose-response curve [17]: 0.94 | normalized area under the dose-response curve (OPM2 (cancer type: MM)): 0.932 | normalized area under the dose-response curve [18]: 0.889 | normalized area under the dose-response curve (SKMM2 (cancer type: MM)): 1.01 | normalized area under the dose-response curve [19]: 0.858 | normalized area under the dose-response curve [20]: 0.807 | normalized area under the dose-response curve [21]: 0.94 | normalized area under the dose-response curve [22]: 0.864 | normalized area under the dose-response curve (Se-Ax (cancer type: TCL)): 0.765 | normalized area under the dose-response curve (U266 (cancer type: MM)): 0.896 | normalized area under the dose-response curve (XG2 (cancer type: MM)): 0.867

Nc1nc(Cl)nc2c1ncn2[C@@H]1O[C@H](CO)[C@@H](O)[C@@H]1F [Clofarabine]
normalized area under the dose-response curve (AMO1 (cancer type: MM)): 0.489 | normalized area under the dose-response curve (EJM (cancer type: MM)): 0.477 | normalized area under the dose-response curve (FR4 (cancer type: MM)): 0.973 | normalized area under the dose-response curve [1]: 0.35 | normalized area under the dose-response curve [2]: 0.727 | normalized area under the dose-response curve (JJN3 (cancer type: MM)): 0.559 | normalized area under the dose-response curve [3]: 0.594 | normalized area under the dose-response curve [4]: 0.138 | normalized area under the dose-response curve (KMS11 (cancer type: MM)): 0.578 | normalized area under the dose-response curve [5]: 0.66 | normalized area under the dose-response curve (KMS18 (cancer type: MM)): 0.794 | normalized area under the dose-response curve (KMS26 (cancer type: MM)): 0.592 | normalized area under the dose-response curve [6]: 0.617 | normalized area under the dose-response curve [7]: 0.422 | normalized area under the dose-response curve (KMS34 (cancer type: MM)): 0.536 | normalized area under the dose-response curve [8]: 0.759 | normalized area under the dose-response curve (L363 (cancer type: MM)): 0.667 | normalized area under the dose-response curve (LP1 (cancer type: MM)): 0.686 | normalized area under the dose-response curve (MM1.R (cancer type: MM)): 0.45 | normalized area under the dose-response curve (MM1.S (cancer type: MM)): 0.36 | normalized area under the dose-response curve [9]: 0.274 | normalized area under the dose-response curve (My-La (cancer type: TCL)): 0.685 | normalized area under the dose-response curve [10]: 0.43 | normalized area under the dose-response curve [11]: 0.5 | normalized area under the dose-response curve [12]: 0.472 | normalized area under the dose-response curve [13]: 0.119 | normalized area under the dose-response curve [14]: 0.915 | normalized area under the dose-response curve [15]: 0.927 | normalized area under the dose-response curve [16]: 0.807 | normalized area under the dose-response curve [17]: 0.74 | normalized area under the dose-response curve (OPM2 (cancer type: MM)): 0.871 | normalized area under the dose-response curve [18]: 0.727 | normalized area under the dose-response curve (SKMM2 (cancer type: MM)): 0.728 | normalized area under the dose-response curve [19]: 0.851 | normalized area under the dose-response curve [20]: 0.236 | normalized area under the dose-response curve [21]: 0.662 | normalized area under the dose-response curve [22]: 0.573 | normalized area under the dose-response curve (Se-Ax (cancer type: TCL)): 0.451 | normalized area under the dose-response curve (U266 (cancer type: MM)): 0.595 | normalized area under the dose-response curve (XG2 (cancer type: MM)): 0.346

COc1cc2/c(=N/c3ccc(Br)cc3F)nc[nH]c2cc1OCC1CCN(C)CC1 [Vandetanib]
normalized area under the dose-response curve (AMO1 (cancer type: MM)): 0.767 | normalized area under the dose-response curve (EJM (cancer type: MM)): 0.672 | normalized area under the dose-response curve (FR4 (cancer type: MM)): 0.922 | normalized area under the dose-response curve [1]: 0.892 | normalized area under the dose-response curve [2]: 0.892 | normalized area under the dose-response curve (JJN3 (cancer type: MM)): 0.873 | normalized area under the dose-response curve [3]: 0.773 | normalized area under the dose-response curve [4]: 0.937 | normalized area under the dose-response curve (KMS11 (cancer type: MM)): 0.777 | normalized area under the dose-response curve [5]: 0.95 | normalized area under the dose-response curve (KMS18 (cancer type: MM)): 0.774 | normalized area under the dose-response curve (KMS26 (cancer type: MM)): 0.962 | normalized area under the dose-response curve [6]: 0.985 | normalized area under the dose-response curve [7]: 0.844 | normalized area under the dose-response curve (KMS34 (cancer type: MM)): 0.623 | normalized area under the dose-response curve [8]: 0.896 | normalized area under the dose-response curve (L363 (cancer type: MM)): 0.795 | normalized area under the dose-response curve (LP1 (cancer type: MM)): 0.684 | normalized area under the dose-response curve (MM1.R (cancer type: MM)): 0.87 | normalized area under the dose-response curve (MM1.S (cancer type: MM)): 0.86 | normalized area under the dose-response curve [9]: 0.921 | normalized area under the dose-response curve (My-La (cancer type: TCL)): 0.906 | normalized area under the dose-response curve [10]: 0.87 | normalized area under the dose-response curve [11]: 0.918 | normalized area under the dose-response curve [12]: 0.969 | normalized area under the dose-response curve [13]: 0.993 | normalized area under the dose-response curve [14]: 0.784 | normalized area under the dose-response curve [15]: 0.95 | normalized area under the dose-response curve [16]: 0.908 | normalized area under the dose-response curve [17]: 0.96 | normalized area under the dose-response curve (OPM2 (cancer type: MM)): 0.861 | normalized area under the dose-response curve [18]: 0.905 | normalized area under the dose-response curve (SKMM2 (cancer type: MM)): 0.963 | normalized area under the dose-response curve [19]: 0.961 | normalized area under the dose-response curve [20]: 0.77 | normalized area under the dose-response curve [21]: 0.911 | normalized area under the dose-response curve [22]: 0.96 | normalized area under the dose-response curve (Se-Ax (cancer type: TCL)): 0.784 | normalized area under the dose-response curve (U266 (cancer type: MM)): 0.746 | normalized area under the dose-response curve (XG2 (cancer type: MM)): 0.726

Reference: the supplement of paper PMC7214452
